The text below walks through data of US20040142317A1, “Use of amino acid transporter atbo,+ as a delivery system for drugs and prodrugs” (priority 2003, published 2004).

For assay [1], the target named is T1, OCTN2 (Homo sapiens, UniProt O76082).
T1 sequence (O76082 1-557): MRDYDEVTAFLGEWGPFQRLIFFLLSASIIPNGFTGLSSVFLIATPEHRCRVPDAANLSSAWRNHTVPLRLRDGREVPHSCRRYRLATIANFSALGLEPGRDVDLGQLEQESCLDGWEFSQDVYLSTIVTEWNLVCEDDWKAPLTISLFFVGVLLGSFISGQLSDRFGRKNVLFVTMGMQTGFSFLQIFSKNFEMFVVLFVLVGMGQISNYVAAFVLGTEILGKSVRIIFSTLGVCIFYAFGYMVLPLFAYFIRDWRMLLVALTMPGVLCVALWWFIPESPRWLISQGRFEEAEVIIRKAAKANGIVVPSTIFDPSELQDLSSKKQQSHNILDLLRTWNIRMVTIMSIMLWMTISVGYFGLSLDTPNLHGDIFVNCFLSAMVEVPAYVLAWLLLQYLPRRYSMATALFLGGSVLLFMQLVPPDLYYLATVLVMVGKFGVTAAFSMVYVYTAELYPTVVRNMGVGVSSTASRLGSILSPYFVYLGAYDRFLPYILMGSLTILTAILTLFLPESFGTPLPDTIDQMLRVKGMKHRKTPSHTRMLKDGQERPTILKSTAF
The settings on record: literature values; cited from earlier work.

Assay [2] deals with T2, mouse ATB^0,+ (Mus musculus, UniProt Q9JMA9).
T2 sequence (Q9JMA9 1-638): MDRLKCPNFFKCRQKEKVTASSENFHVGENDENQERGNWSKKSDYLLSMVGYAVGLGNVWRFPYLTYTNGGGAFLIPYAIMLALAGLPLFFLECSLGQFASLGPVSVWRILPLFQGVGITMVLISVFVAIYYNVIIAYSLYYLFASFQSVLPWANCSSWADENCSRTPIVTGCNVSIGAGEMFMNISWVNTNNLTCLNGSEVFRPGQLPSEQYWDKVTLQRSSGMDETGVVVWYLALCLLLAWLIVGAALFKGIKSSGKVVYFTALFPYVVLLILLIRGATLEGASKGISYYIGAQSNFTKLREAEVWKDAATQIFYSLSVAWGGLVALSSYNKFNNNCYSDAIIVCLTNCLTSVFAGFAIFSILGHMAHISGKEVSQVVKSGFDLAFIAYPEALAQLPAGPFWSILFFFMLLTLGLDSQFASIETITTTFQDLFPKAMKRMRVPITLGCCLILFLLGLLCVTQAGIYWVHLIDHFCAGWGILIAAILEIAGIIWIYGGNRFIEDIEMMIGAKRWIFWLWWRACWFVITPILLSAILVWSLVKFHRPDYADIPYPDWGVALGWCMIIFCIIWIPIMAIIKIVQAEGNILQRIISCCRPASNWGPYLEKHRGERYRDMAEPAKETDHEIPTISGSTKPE
The assay can be described thus: Transport of radiolabeled substrates in HRPE cells expressing cloned mouse ATB0,+. In kind it is cell-based.

In assay [3] the target is T2, mouse ATB^0,+.
Assay [4] has as its target T2, mouse ATB^0,+. The source holds these as a separate data set.
The mark [5] stands for this setting: HRPE cells, radiolabeled substrate.

`C[N+](C)(C)CC(O)CC(=O)[O-]` (stereo not drawn) [carnitine, β-hydroxy-γ-trimethylaminobutyrate]: in assay [1], the “Kt of OCTN2” value was 5 to 15 µM. In addition, in assay [2] (HRPE cells), the “Hill coefficient for Na+ activation of substrate transport” value came to 1.6±0.1, the “K0.5 for Na+ in substrate transport” value was 54 ± 4 mM and the “Vmax of ATB^0,+-mediated transport” value is 72±2 nmol/10^6 cells/15 min. Moreover, in assay [2] (setting [5]), the “Michaelis-Menten constant (Kt) of transport via mouse ATB^0,+” value was 0.83 ± 0.08 mM and the “transport in ATB^0,+ cDNA-transfected cells compared to vector-transfected cells” value stood at 16 fold. In addition, in assay [2] (carnitine 15 μM, HRPE cells), the “reduction of transport on removal of Cl− (gluconate)” value was about 60% and the “transport when Na+ substituted with N-methyl-D-glucamine” value was “completely abolished”. Also, in assay [2] (summary of HRPE cell and oocyte values), the “Kt of ATB^0,+ (discussion summary)” value was 1 to 2 mM. In addition, the half-inhibitory concentration (IC50) (in general, the midpoint of a concentration-inhibition curve) in assay [3] was 600 ± 100 µM. Further, the induced inward currents in assay [4] (10 mM carnitine, esters under similar conditions) is reported as about 300 nA. Moreover, in assay [4] (oocytes, carnitine 1 mM), the “Hill coefficient (nH) for Cl− activation of substrate-induced currents” value is recorded as 0.9±0.2, the “Hill coefficient (nH) for Na+ activation of substrate-induced currents” value came out at 1.9±0.5, the “K0.5 for Cl− of substrate-induced currents” value worked out at 15 ± 5 mM and the “K0.5 for Na+ of substrate-induced currents” value amounted to 25 ± 4 mM. Also, in assay [4] (oocytes, membrane potential −50 mV), the “K0.5 (concentration inducing half-maximal current; Michaelis-Menten constant)” value is 1.8 ± 0.4 mM.
